Source: ChEMBL document CHEMBL2440080, “Synthesis and biological evaluation of novel acylhydrazone derivatives as potential antitumor agents” (Bioorg Med Chem, 2013)

What was measured:
Format in all cases: functional
CAKI-1 = test: Cytotoxicity against human CAKI-1 cells after 48 hrs by sulforhodamine B assay; conditions: CAKI-1, 48 h
T47D = test: Cytotoxicity against human T47D cells after 48 hrs by sulforhodamine B assay
MDA-MB-468 = test: Cytotoxicity against human MDA-MB-468 cells after 48 hrs by sulforhodamine B assay; conditions: MDA-MB-468, 48 h
BT-549 = test: Cytotoxicity against human BT549 cells after 48 hrs by sulforhodamine B assay; conditions: BT-549, 48 h
[1] = Cytotoxicity against human Hs 578T cells after 48 hrs by sulforhodamine B assay
MDA-MB-435 = test: Cytotoxicity against human MDA-MB-435 cells after 48 hrs by sulforhodamine B assay; conditions: MDA-MB-435, 48 h
NCI/ADR-RES = test: Cytotoxicity against human NCI/ADR-RES cells after 48 hrs by sulforhodamine B assay
MDA-MB-231 = test: Cytotoxicity against human MDA-MB-231 cells after 48 hrs by sulforhodamine B assay; conditions: MDA-MB-231, 48 h
DU-145 = test: Cytotoxicity against human DU145 cells after 48 hrs by sulforhodamine B assay; conditions: DU-145, 48 h
MCF7 = test: Cytotoxicity against human MCF7 cells after 48 hrs by sulforhodamine B assay; conditions: MCF7, 48 h
UO-31 = test: Cytotoxicity against human UO31 cells after 48 hrs by sulforhodamine B assay; conditions: UO-31, 48 h
PC-3 = test: Cytotoxicity against human PC3 cells after 48 hrs by sulforhodamine B assay; conditions: PC-3, 48 h
SN12C = test: Cytotoxicity against human SN12C cells after 48 hrs by sulforhodamine B assay
TK-10 = test: Cytotoxicity against human TK10 cells after 48 hrs by sulforhodamine B assay; conditions: TK-10, 48 h
ACHN = test: Cytotoxicity against human ACHN cells after 48 hrs by sulforhodamine B assay
RXF 393 = test: Cytotoxicity against human RXF393 cells after 48 hrs by sulforhodamine B assay; conditions: RXF 393, 48 h
A498 = test: Cytotoxicity against human A498 cells after 48 hrs by sulforhodamine B assay; conditions: A498, 48 h
786-0 = test: Cytotoxicity against human 786-0 cells after 48 hrs by sulforhodamine B assay; conditions: 786-0, 48 h
OVCAR-8 = test: Cytotoxicity against human OVCAR8 cells after 48 hrs by sulforhodamine B assay; conditions: OVCAR-8, 48 h
SK-OV-3 = test: Cytotoxicity against human SKOV3 cells after 48 hrs by sulforhodamine B assay; conditions: SK-OV-3, 48 h
OVCAR-4 = test: Cytotoxicity against human OVCAR4 cells after 48 hrs by sulforhodamine B assay; conditions: OVCAR-4, 48 h
OVCAR-5 = test: Cytotoxicity against human OVCAR5 cells after 48 hrs by sulforhodamine B assay; conditions: OVCAR-5, 48 h
IGROV-1 = test: Cytotoxicity against human IGROV1 cells after 48 hrs by sulforhodamine B assay; conditions: IGROV-1, 48 h
OVCAR-3 = test: Cytotoxicity against human OVCAR3 cells after 48 hrs by sulforhodamine B assay; conditions: OVCAR-3, 48 h
UACC-257 = test: Cytotoxicity against human UACC257 cells after 48 hrs by sulforhodamine B assay; conditions: UACC-257, 48 h
UACC-62 = test: Cytotoxicity against human UACC62 cells after 48 hrs by sulforhodamine B assay; conditions: UACC-62, 48 h
SK-MEL-28 = test: Cytotoxicity against human SK-MEL-28 cells after 48 hrs by sulforhodamine B assay; conditions: SK-MEL-28, 48 h
SK-MEL-5 = test: Cytotoxicity against human SK-MEL-5 cells after 48 hrs by sulforhodamine B assay; conditions: SK-MEL-5, 48 h
M14 = test: Cytotoxicity against human M14 cells after 48 hrs by sulforhodamine B assay; conditions: M14, 48 h
SK-MEL-2 = test: Cytotoxicity against human SK-MEL-2 cells after 48 hrs by sulforhodamine B assay; conditions: SK-MEL-2, 48 h
LOX IMVI = test: Cytotoxicity against human LOXIMVI cells after 48 hrs by sulforhodamine B assay
Malme-3M = test: Cytotoxicity against human MALME-3M cells after 48 hrs by sulforhodamine B assay
SNB-75 = test: Cytotoxicity against human SNB75 cells after 48 hrs by sulforhodamine B assay; conditions: SNB-75, 48 h
U-251 = test: Cytotoxicity against human U251 cells after 48 hrs by sulforhodamine B assay; conditions: U-251, 48 h
SF-539 = test: Cytotoxicity against human SF539 cells after 48 hrs by sulforhodamine B assay; conditions: SF-539, 48 h
SNB-19 = test: Cytotoxicity against human SNB19 cells after 48 hrs by sulforhodamine B assay; conditions: SNB-19, 48 h
SF-295 = test: Cytotoxicity against human SF295 cells after 48 hrs by sulforhodamine B assay; conditions: SF-295, 48 h
SW-620 = test: Cytotoxicity against human SW620 cells after 48 hrs by sulforhodamine B assay; conditions: SW-620, 48 h
SF-268 = test: Cytotoxicity against human SF268 cells after 48 hrs by sulforhodamine B assay; conditions: SF-268, 48 h
HT-29 = test: Cytotoxicity against human HT-29 cells after 48 hrs by sulforhodamine B assay; conditions: HT-29, 48 h
KM12 = test: Cytotoxicity against human KM12 cells after 48 hrs by sulforhodamine B assay; conditions: KM12, 48 h
HCT-116 = test: Cytotoxicity against human HCT116 cells after 48 hrs by sulforhodamine B assay; conditions: HCT-116, 48 h
HCT-15 = test: Cytotoxicity against human HCT15 cells after 48 hrs by sulforhodamine B assay; conditions: HCT-15, 48 h
HCC 2998 = test: Cytotoxicity against human HCC2998 cells after 48 hrs by sulforhodamine B assay; conditions: HCC 2998, 48 h
NCI-H522 = test: Cytotoxicity against human NCI-H522 cells after 48 hrs by sulforhodamine B assay; conditions: NCI-H522, 48 h
COLO 205 = test: Cytotoxicity against human COLO205 cells after 48 hrs by sulforhodamine B assay; conditions: COLO 205, 48 h
NCI-H460 = test: Cytotoxicity against human NCI-H460 cells after 48 hrs by sulforhodamine B assay; conditions: NCI-H460, 48 h
NCI-H23 = test: Cytotoxicity against human NCI-H23 cells after 48 hrs by sulforhodamine B assay; conditions: NCI-H23, 48 h
NCI-H322M = test: Cytotoxicity against human NCI-H322M cells after 48 hrs by sulforhodamine B assay
HOP-92 = test: Cytotoxicity against human HOP92 cells after 48 hrs by sulforhodamine B assay; conditions: HOP-92, 48 h
NCI-H226 = test: Cytotoxicity against human NCI-H226 cells after 48 hrs by sulforhodamine B assay; conditions: NCI-H226, 48 h
[2] = Cytotoxicity against human EKVX cells after 48 hrs by sulforhodamine B assay
HOP-62 = test: Cytotoxicity against human HOP62 cells after 48 hrs by sulforhodamine B assay; conditions: HOP-62, 48 h
SR = test: Cytotoxicity against human SR cells after 48 hrs by sulforhodamine B assay
A549 = test: Cytotoxicity against human A549/ATCC cells after 48 hrs by sulforhodamine B assay; conditions: A549, 48 h
K562 = test: Cytotoxicity against human K562 cells after 48 hrs by sulforhodamine B assay; conditions: K562, 48 h
MOLT-4 = test: Cytotoxicity against human MOLT4 cells after 48 hrs by sulforhodamine B assay; conditions: MOLT-4, 48 h
CCRF-CEM = test: Cytotoxicity against human CCRF-CEM cells after 48 hrs by sulforhodamine B assay
HL-60(TB) = test: Cytotoxicity against human HL-60(TB) cells after 48 hrs by sulforhodamine B assay; conditions: HL-60, 48 h

Structure (SMILES): CCN(CC)c1ccc(/C=N/NC(=O)Cc2ccc(Nc3ccnc(C(F)(F)F)c3)cc2)c(O)c1
- GI50 (CAKI-1): 398 nM
- GI50 (T47D): 631 nM
- GI50 (MDA-MB-468): 389 nM
- GI50 (BT-549): 1350 nM
- GI50 [1]: 2190 nM
- GI50 (MDA-MB-435): 912 nM
- GI50 (NCI/ADR-RES): 537 nM
- GI50 (MDA-MB-231): 1120 nM
- GI50 (DU-145): 813 nM
- GI50 (MCF7): 407 nM
- GI50 (UO-31): 389 nM
- GI50 (PC-3): 2000 nM
- GI50 (SN12C): 977 nM
- GI50 (TK-10): 417 nM
- GI50 (ACHN): 398 nM
- GI50 (RXF 393): 1000 nM
- GI50 (A498): 5010 nM
- GI50 (786-0): 437 nM
- GI50 (OVCAR-8): 501 nM
- GI50 (SK-OV-3): 363 nM
- GI50 (OVCAR-4): 513 nM
- GI50 (OVCAR-5): 776 nM
- GI50 (IGROV-1): 501 nM
- GI50 (OVCAR-3): 794 nM
- GI50 (UACC-257): 1910 nM
- GI50 (UACC-62): 398 nM
- GI50 (SK-MEL-28): 813 nM
- GI50 (SK-MEL-5): 309 nM
- GI50 (M14): 525 nM
- GI50 (SK-MEL-2): 4900 nM
- GI50 (LOX IMVI): 398 nM
- GI50 (Malme-3M): 1000 nM
- GI50 (SNB-75): 2510 nM
- GI50 (U-251): 501 nM
- GI50 (SF-539): 479 nM
- GI50 (SNB-19): 525 nM
- GI50 (SF-295): 501 nM
- GI50 (SW-620): 813 nM
- GI50 (SF-268): 537 nM
- GI50 (HT-29): 676 nM
- GI50 (KM12): 676 nM
- GI50 (HCT-116): 398 nM
- GI50 (HCT-15): 407 nM
- GI50 (HCC 2998): 646 nM
- GI50 (NCI-H522): 575 nM
- GI50 (COLO 205): 437 nM
- GI50 (NCI-H460): 316 nM
- GI50 (NCI-H23): 1050 nM
- GI50 (NCI-H322M): 398 nM
- GI50 (HOP-92): 1740 nM
- GI50 (NCI-H226): 676 nM
- GI50 [2]: 398 nM
- GI50 (HOP-62): 501 nM
- GI50 (SR): 251 nM
- GI50 (A549): 832 nM
- GI50 (K562): 550 nM
- GI50 (MOLT-4): 501 nM
- GI50 (CCRF-CEM): 316 nM
- GI50 (HL-60(TB)): 339 nM
